Assay results taken from ChEMBL document CHEMBL3804812, “Design, Syntheses, and Anti-TB Activity of 1,3-Benzothiazinone Azide and Click Chemistry Products Inspired by BTZ043” (ACS Med Chem Lett, 2016).
The source made the active and inactive calls. The rule behind the calls is not given here.

Test system: Mycobacterium tuberculosis
Assay: Antibacterial activity against Mycobacterium tuberculosis NTB1 harboring cys287ser mutation in DprE1 assessed as reduction in colony formation
Format: functional, organism-based

C[C@H]1COC2(CCN(c3nc(=O)c4cc(C(F)(F)F)cc(N=[N+]=[N-])c4s3)CC2)O1
Activity: Active
